Data reported in the supplement of paper PMC10307832.

What was measured:
Assay in all cases: relative viability (nuclei count vs DMSO), 5 days (fraction); higher = more cells survive
Idelalisib + Bortezomib = compound: CC[C@H](Nc1ncnc2[nH]cnc12)c1nc2cccc(F)c2c(=O)n1-c1ccccc1 [Idelalisib] + CC(C)C[C@H](NC(=O)[C@H](Cc1ccccc1)NC(=O)c1cnccn1)B(O)O [Bortezomib] (partner 0.002 µM)
Procedure, shortened: (§1)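 Each reported value is a median over duplicate plates. It expresses relative viability: treated-well nuclei count divided by vehicle-well nuclei count. Lung cancer cell lines in 1536-well plates were dosed by pin tool a day after seeding, alone with one drug or with a fixed anchor-drug dose plus five library-drug doses (not always all listed) in √10 steps, and nuclei were counted after 5 days.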

Pemetrexed + Palbociclib = compound: Nc1nc2[nH]cc(CCc3ccc(C(=O)N[C@@H](CCC(=O)O)C(=O)O)cc3)c2c(=O)[nH]1 [Pemetrexed] + CC(=O)c1c(C)c2cnc(Nc3ccc(N4CCNCC4)cn3)nc2n(C2CCCC2)c1=O [Palbociclib] (partner 0.5 µM)
Procedure, shortened: as §1

Pemetrexed + Bortezomib = compound: Nc1nc2[nH]cc(CCc3ccc(C(=O)N[C@@H](CCC(=O)O)C(=O)O)cc3)c2c(=O)[nH]1 [Pemetrexed] + CC(C)C[C@H](NC(=O)[C@H](Cc1ccccc1)NC(=O)c1cnccn1)B(O)O [Bortezomib] (partner 0.002 µM)
Procedure, shortened: as §1

Pemetrexed + Crizotinib = compound: Nc1nc2[nH]cc(CCc3ccc(C(=O)N[C@@H](CCC(=O)O)C(=O)O)cc3)c2c(=O)[nH]1 [Pemetrexed] + C[C@@H](Oc1cc(-c2cnn(C3CCNCC3)c2)cnc1N)c1c(Cl)ccc(F)c1Cl [Crizotinib] (partner 1 µM)
Procedure, shortened: as §1

Row | Cell Line | relative viability (Idelalisib + Bortezomib; first compound 0.04 µM) | relative viability (Idelalisib + Bortezomib; first compound 0.1265 µM) | relative viability (Idelalisib + Bortezomib; first compound 0.4 µM) | relative viability (Idelalisib + Bortezomib; first compound 1.265 µM) | relative viability (Idelalisib + Bortezomib; first compound 4 µM) | relative viability (Pemetrexed + Palbociclib; first compound 0.002 µM) | relative viability (Pemetrexed + Palbociclib; first compound 0.006325 µM) | relative viability (Pemetrexed + Palbociclib; first compound 0.02 µM) | relative viability (Pemetrexed + Palbociclib; first compound 0.06325 µM) | relative viability (Pemetrexed + Palbociclib; first compound 0.2 µM) | relative viability (Pemetrexed + Bortezomib; first compound 0.002 µM) | relative viability (Pemetrexed + Bortezomib; first compound 0.006325 µM) | relative viability (Pemetrexed + Bortezomib; first compound 0.02 µM) | relative viability (Pemetrexed + Bortezomib; first compound 0.06325 µM) | relative viability (Pemetrexed + Bortezomib; first compound 0.2 µM) | relative viability (Pemetrexed + Crizotinib; first compound 0.002 µM) | relative viability (Pemetrexed + Crizotinib; first compound 0.006325 µM) | relative viability (Pemetrexed + Crizotinib; first compound 0.02 µM) | relative viability (Pemetrexed + Crizotinib; first compound 0.06325 µM) | relative viability (Pemetrexed + Crizotinib; first compound 0.2 µM)
1 | SW 1573 | 1.06 | 0.972 | 1.02 | 0.928 | 0.865 | 0.352 | 0.423 | 0.435 | 0.413 | 0.235 | 1.1 | 0.881 | 1.11 | 0.896 | 1.04 | 0.658 | 0.79 | 0.919 | 0.888 | 0.791
2 | LCLC-97TM1 | 0.357 | 0.76 |  | 0.569 | 0.835 | 0.225 | 0.228 | 0.206 | 0.21 | 0.259 | 0.523 | 1.08 | 0.679 | 0.32 | 0.131 | 0.263 | 0.352 | 0.404 | 0.338 | 0.224
3 | NCI-H1915 | 0.968 | 1.03 | 0.928 | 1.04 | 0.997 | 0.487 | 0.512 | 0.568 | 0.521 | 0.522 | 0.937 | 1.02 | 1.04 | 0.965 | 0.943 | 0.876 | 0.834 | 0.936 | 0.877 | 0.914
4 | NCI-H661 | 0.679 | 0.658 | 0.496 | 0.661 | 0.628 | 0.501 | 0.419 | 0.405 | 0.415 | 0.386 | 0.945 | 0.88 | 0.891 | 0.727 | 0.648 | 1.06 | 1.03 | 0.949 |  | 0.944
5 | NCI-H2405 | 1.05 | 0.98 | 0.937 | 0.983 | 0.962 | 0.524 | 0.531 | 0.535 | 0.514 | 0.48 | 0.983 | 0.974 | 1.05 | 0.986 | 0.96 | 0.868 | 0.785 | 0.869 | 0.824 | 0.825
6 | NCI-H2347 | 0.971 | 0.982 | 0.971 | 0.774 | 0.799 | 0.448 | 0.413 | 0.505 | 0.4 | 0.388 | 0.678 | 1.26 | 1.07 | 0.903 | 0.599 | 0.689 | 0.616 | 0.694 | 0.577 | 0.477
7 | NCI-H1651 | 1 | 0.913 | 0.939 | 1.01 | 1.02 | 0.548 | 0.477 | 0.52 | 0.495 | 0.529 | 0.992 | 0.919 | 0.945 | 0.892 | 0.911 | 0.879 | 0.792 | 0.92 | 0.864 | 0.851
8 | H3255 | 0.882 | 0.888 | 0.807 | 0.807 | 0.829 | 0.351 | 0.319 | 0.312 | 0.31 | 0.328 |  | 0.834 | 0.933 | 0.692 | 0.572 |  | 0.952 | 0.926 | 0.864 | 0.608
9 | NCI-H650 | 0.693 | 0.998 | 0.735 | 1.13 | 0.662 | 0.344 | 0.298 |  | 0.348 | 0.313 | 0.67 | 0.828 | 0.748 | 0.853 | 0.866 | 0.698 | 0.725 | 0.66 | 0.762 | 0.696
10 | NCI-H460 | 0.782 | 1.03 | 1.1 | 1.23 | 1.04 |  | 0.142 | 0.206 | 0.0722 | 0.0459 | 1.06 | 1 | 1.16 | 0.177 | 0.0656 | 0.842 | 0.794 | 1.02 | 0.197 | 0.0567
11 | NCI-H2228 | 1.07 | 0.983 | 1.09 | 1.05 | 1.03 | 0.579 | 0.755 | 0.746 | 0.341 | 0.268 | 0.934 | 0.918 | 1.07 | 0.754 | 0.339 | 0.424 | 0.514 | 0.409 | 0.358 | 0.31
12 | NCI-H2085 | 0.916 | 1.08 | 0.983 | 1.06 | 0.848 | 0.457 | 0.458 | 0.495 | 0.471 | 0.464 | 1.01 | 1.19 | 1.04 | 1.09 | 1.05 | 0.96 | 0.869 | 0.752 | 0.896 | 0.924
13 | HCC-366 | 1 | 1.11 | 1 | 1.03 | 0.931 | 0.356 | 0.349 | 0.349 | 0.367 | 0.226 | 0.97 | 1.04 | 1.13 | 1.05 | 0.661 | 0.49 | 0.404 | 0.701 | 0.586 | 0.476
14 | EPLC-272H | 0.904 | 0.858 | 1.05 | 0.935 | 0.851 | 0.355 | 0.331 | 0.356 | 0.332 | 0.303 | 0.682 | 0.888 | 1.16 | 0.848 | 0.926 | 0.781 | 0.913 | 1.07 | 0.981 | 0.853
15 | 201T | 1.1 | 1.07 | 1.1 | 1.13 | 1.08 | 0.396 | 0.352 | 0.365 | 0.335 | 0.362 | 1.05 | 1.11 | 1.12 | 1.09 | 1.03 | 0.941 | 1.03 | 1.05 | 1.07 | 0.999
16 | NCI-H3122 | 1.03 | 1.04 | 1.09 | 1.09 | 1.04 | 0.164 | 0.192 | 0.206 | 0.222 | 0.165 | 1.02 | 1.02 | 0.899 | 0.99 | 0.877 | 0.275 | 0.261 | 0.261 | 0.244 | 0.233
